Reference: paper PMC10303920, “Competition between skin antimicrobial peptides and commensal bacteria in type 2 inflammation enables survival of S. aureus” (Cell reports, 2023)

How the values were obtained:
[1] = tested on: mixture of S. aureus (ATCC35556), ShA9-WT and ShA9-ΔLanti; assay: Staphylococcus competition assay in vitro; format: cell-based, Staphylococcus aureus, Staphylococcus hominis; details: RPMI1640, 1 × 10^6 CFU/mL each strain, 30°C, 3 h, Figure 6B
Procedure: Three Staphylococcus strains, S. aureus (ATCC35556), ShA9-WT (antibiotic-producing strain) or ShA9-Dlanti mutant (non-antimicrobial strain) were individually cultured in TSB. Bacterial cells were washed with PBS and re-suspended in fresh PBS. For in vitro competition assay, three bacterial strains were suspended in RPMI1640 media (1mL) at 1 × 10^6 CFU/mL each and LL-37 was added at 0, 1, 2, 4, 8, 16μM. Bacterial mixture were incubated at 30°C for 3 h without shaking. […] Proportion of three Staphylococcus strains was determined by CFU counting on mannitol salt agar with egg yolk for total Staphylococcus CFU and on Barid-Parker agar for S. aureus. Relative proportion of Staphylococcus species was determined as following; S. aureus: CFUs on Baird-Parker CFU/CFUs on mannitol salt agar, CoNS: CFUs on mannitol salt agar – CFUs on Baird-Parker. Ratio of ShA9-WT to ShA9-DLanti mutant were measured by analyzing 12 colonies of pink color CoNS colonies without halo on mannitol salt agar from each sample with colony PCR using lantibiotic-specific primers (key resources table).
Survival of S. aureus and CoNS were measured on Baird-Parker agar for S. aureus or mannitol salt agar with egg yolk for total Staphylococcus species using easySpiral automatic diluter plater with exponential mode or circle mode and automatic colony counter (Interscience Inc., France). […]

ShA9-ΔLanti [2] = assay: Synergistic antimicrobial assay between LL-37 and ShA9 lantibiotics; format: cell-based, Staphylococcus hominis; details: sub-antimicrobial doses of LL-37 (4 or 8 μM) plus conditioned medium from ShA9-WT, 90% RPMI/10% TSB, 30°C, 24 h; Figure 5A
Procedure: ShA9 or S. epidermidis A11 strains, lantibiotic producing CoNS, were cultured in TSB at 37°C with shake overnight. Bacteria were removed by centrifugation, followed by sterile filtration with 0.22μm membrane. Lantibiotics from each strain was precipitated by adding ammonium sulfate into the sterile conditioned media at 70% saturation. The ammonium sulfate precipitation of conditioned media were dissolved in 90% RPMI1640 supplemented by 10% TSB. ShA9-DLanti mutant or S. hominis C6 strain were cultured in TSB at 37°C overnight and washed with PBS. These strain was incubated with conditioned media precipitation (0–100%) along with 0, 4, 8mM of LL-37 in 90% RPMI/10% TSB at 30°C for 24 h. Concentration of conditioned media precipitation added was calculated based on the original volume of sterile conditioned media. Bacterial survival was evaluated by measuring OD600 or counting CFUs.

ShA9-WT and ShA9-ΔLanti = assay: Growth inhibition of ShA9-WT and ShA9-ΔLanti by human and murine AMPs (OD600); format: cell-based, Staphylococcus hominis; details: 90% RPMI/10% TSB, 30°C, 24 h, mean of duplicate technical replicates, Figure 4E
Procedure: Staphylococcus strains collected from normal skin from healthy subjects or lesional skin from AD patients were cultured in TSB overnight. Bacteria were washed with PBS and resuspended to 90% RPMI media and 10% TSB. Bacteria (1 × 10^5 CFU/mL) were incu bated with or without human AMPs (LL-37, hBD-2, hBD-3) or mouse cathelin-related AMP (CRAMP) in 90% RPMI media and 10% TSB (100 μL) in each well of a 96-well plate at 30°C for 24 h. Bacterial growth was assessed by measuring OD600. Minimal inhibitory concentration was defined as the lowest concentration which prevent visible bacterial growth (<5% of OD600 value of the con trol well).

S. hominis C6 strain = assay: Synergistic antimicrobial assay between LL-37 and Pep-5; format: cell-based, Staphylococcus hominis; details: strain lacking antimicrobial activity; 90% RPMI/10% TSB, 30°C, 24 h; Figure S9
Procedure: ShA9 or S. epidermidis A11 strains, lantibiotic producing CoNS, were cultured in TSB at 37°C with shake overnight. Bacteria were removed by centrifugation, followed by sterile filtration with 0.22μm membrane. Lantibiotics from each strain was precipitated by adding ammonium sulfate into the sterile conditioned media at 70% saturation. The ammonium sulfate precipitation of conditioned media were dissolved in 90% RPMI1640 supplemented by 10% TSB. ShA9-DLanti mutant or S. hominis C6 strain were cultured in TSB at 37°C overnight and washed with PBS. These strain was incubated with conditioned media precipitation (0–100%) along with […] of LL-37 in 90% RPMI/10% TSB at 30°C for 24 h. Concentration of conditioned media precipitation added was calculated based on the original volume of sterile conditioned media. Bacterial survival was evaluated by measuring OD600 or counting CFUs.

[3] = tested on: CoNS-AM+ strains of S. epidermidis or S. hominis; assay: Bacterial survival on pigskin, antibiotic-producing CoNS; format: cell-based; details: LL-37 2.5 nmol on 2.5 × 2.5 cm pigskin sheet, 1 × 10^6 CFU, 30°C, 24 h; Figure 4F
Procedure: Fresh-frozen pigskin sheets were obtained from Loretta Tomlin Animal Technologies (Livermore, CA) and sanitized by surgical brush with 3% chloroxylenol. The skin sheet was cut into 2.5 cm × 2.5 cm and rinsed with sterile PBS more than 20 times to remove chloroxylenol residue. Synthetic LL-37 (2.5nanomol/50μL H2O) or equal volume of vehicle was applied to the surface of sanitized pig skin. Antibiotic-producing or non-antibiotic-producing strain of CoNS (1 × 10^6 CFU/10μL PBS) was applied on the pigskin. Pigskin sheet was placed on a 6-well plate and incubated at 30°C for 24 h. The entire skin sheet was rubbed 50 times with nylon foam swab (Puritan) pre-moisturized with PBS to collect bacteria on the skin surface. Swab sample was suspended in 1mL of 85% TSB/15% glycerol and frozen until analysis.

ShA9-WT = assay: Transmission electron microscopy of ShA9-WT; format: cell-based, Staphylococcus hominis; details: LL-37 (2 μM), 30°C, 30 min; Figure 5B
ShA9-ΔLanti [4] = assay: Transmission electron microscopy of ShA9-ΔLanti; format: cell-based, Staphylococcus hominis; details: 30°C, 30 min, Figure 5C
Procedure: To observe the effect of synergistic antimicrobial action between host AMP and lantibiotic on ShA9, ShA9-DLanti mutant were incubated in 90% RPMI media/10% TSB containing LL-37 ([…]), ammonium sulfate precipitation fraction of conditioned media from ShA9-WT (25% calculated from the original volume of media), or combination at 30°C for 30 min. Bacterial cells were washed with PBS twice and immediately fixed by re-suspending in modified Karnovsky’s fixative for 4 h, followed by 1% osmium tetroxide in 0.1 M cacodylate buffer for 1 h on ice. The cells were stained with 2% uranyl acetate for 1 h on ice, dehydrated in a graded series of ethanol (50–100%), washed with acetone, and then embedded with Durcupan. Sections (60 nm) were post-stained with 2% uranyl acetate for 5 min and Sato’s lead stain for 1 min. Grids were viewed using a JEOL JEM-1400Plus (JEOL, Peabody, MA) transmission electron microscope and photographed using a Gatan OneView 4 K digital camera (Gatan, Pleasanton, CA).

## LL-37
[1]; LL-37 1–4 μM
  Shift in relative proportion of the bacterial mixture at lower LL-37 concentrations: favor growth of S. aureus and ShA9-ΔLanti over the antibiotic-producing ShA9-WT
[1]; LL-37 8–16 μM
  Effect on the bacterial mixture at higher LL-37 concentrations: inhibited both the antibiotic-producing CoNS and S. aureus
ShA9-ΔLanti [2]
  Growth of ShA9-ΔLanti with the combination of LL-37 and ShA9 CM containing lantibiotics: synergistically inhibited growth
ShA9-WT and ShA9-ΔLanti
  Sensitivity of ShA9-WT to the AMP compared with ShA9-ΔLanti (growth inhibition): more sensitive
S. hominis C6 strain
  Antimicrobial interaction of LL-37 combined with Pep-5 on S. hominis C6: synergy
[3]
  Survival of CoNS strains with antibiotic activity on pigskin: inhibited survival
ShA9-WT
  Electron microscopy findings in ShA9-WT after exposure: disruption of cytoplasmic membrane integrity and development of a mesosome-like structure within the cytosol
ShA9-ΔLanti [4]; LL-37 or ShA9-CM alone
  Electron microscopy findings in ShA9-ΔLanti after exposure to the single agent alone: did not show these changes
ShA9-ΔLanti [4]; combination
  Electron microscopy findings in ShA9-ΔLanti after the combination of lantibiotic-containing CM and LL-37: promote membrane damage
